{"source": "ChEMBL document CHEMBL5614414", "about": "“Discovery of novel arylpyridine derivatives for motile ciliogenesis” (Eur J Med Chem, 2024)", "key": {"Danio rerio [1]": {"organism": "Danio rerio", "assay": "Ex vivo activation of Foxj1-mediated motile ciliogenesis pathway in Tg(foxj1a:eGFP)hsc16 zebrafish TL embryo assessed as EGFP expression in spinal ependymal cells at 5 uM incubated for 24 hrs by fluorescent stereomicroscope analysis", "assay_type": "functional, cell-based"}, "Danio rerio [2]": {"organism": "Danio rerio", "assay": "Ex vivo activation of Foxj1-mediated motile ciliogenesis pathway in Tg(foxj1a:eGFP)hsc16 zebrafish TL embryo assessed as EGFP expression in spinal ependymal cells at 2.5 uM incubated for 24 hrs by fluorescent stereomicroscope analysis", "assay_type": "functional, cell-based"}, "Cytochrome P450 2C9": {"biological_target": "Cytochrome P450 2C9 (Homo sapiens, UniProt P11712)", "sequence (P11712 whole entry)": "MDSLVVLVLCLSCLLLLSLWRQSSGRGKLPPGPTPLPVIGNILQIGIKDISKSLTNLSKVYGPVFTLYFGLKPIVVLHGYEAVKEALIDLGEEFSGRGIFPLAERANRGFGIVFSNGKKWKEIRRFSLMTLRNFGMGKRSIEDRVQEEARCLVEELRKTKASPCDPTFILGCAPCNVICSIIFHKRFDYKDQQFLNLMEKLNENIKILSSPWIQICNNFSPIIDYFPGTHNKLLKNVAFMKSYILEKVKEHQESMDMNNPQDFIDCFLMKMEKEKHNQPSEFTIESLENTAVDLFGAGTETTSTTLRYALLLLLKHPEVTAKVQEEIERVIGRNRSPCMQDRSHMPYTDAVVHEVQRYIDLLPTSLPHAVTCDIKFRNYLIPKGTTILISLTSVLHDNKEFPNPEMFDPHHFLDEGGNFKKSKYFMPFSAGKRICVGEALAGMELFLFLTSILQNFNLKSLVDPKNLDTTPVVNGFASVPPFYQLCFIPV", "assay": "Inhibition of human CYP2C9 using sulfaphenazole as […] relative to control", "assay_type": "ADME"}, "[3]": {"assay": "Volume of distribution at steady state in male mouse at 1 mg/kg, iv", "assay_type": "ADME, organism-based", "conditions": "in vivo, read-out: Vdss"}, "mTEC": {"tested_on": "mTEC", "assay": "Ex vivo activation of Foxj1-mediated motile ciliogenesis pathway in wild type C57BL/6 mTEC (mouse tracheal epithelial cells) assessed as increase in multiciliated cells at 5 uM administered for 4 days starting from airlift interface day 0 with replacement of fresh media for every two days by DAPI staining based confocal laser microscopic analysis", "assay_type": "functional, cell-based", "conditions": "time 4.0 day"}, "[4]": {"assay": "Clearance in male mouse at 1 mg/kg, iv", "assay_type": "ADME, organism-based", "conditions": "in vivo"}, "[5]": {"assay": "Metabolic stability in mouse liver microsomes assessed as compound remaining incubated for 30 mins", "assay_type": "ADME, Microsome", "conditions": "read-out: Stability"}, "[6]": {"assay": "Metabolic stability in rat liver microsomes assessed as compound remaining incubated for 30 mins", "assay_type": "ADME, Microsome", "conditions": "read-out: Stability"}, "[7]": {"assay": "Metabolic stability in human liver microsomes assessed as compound remaining incubated for 30 mins", "assay_type": "ADME, Microsome", "conditions": "read-out: Stability"}, "Cytochrome P450 1A2": {"biological_target": "T1, Cytochrome P450 1A2 (Homo sapiens, UniProt P05177)", "T1 sequence (P05177 whole entry)": "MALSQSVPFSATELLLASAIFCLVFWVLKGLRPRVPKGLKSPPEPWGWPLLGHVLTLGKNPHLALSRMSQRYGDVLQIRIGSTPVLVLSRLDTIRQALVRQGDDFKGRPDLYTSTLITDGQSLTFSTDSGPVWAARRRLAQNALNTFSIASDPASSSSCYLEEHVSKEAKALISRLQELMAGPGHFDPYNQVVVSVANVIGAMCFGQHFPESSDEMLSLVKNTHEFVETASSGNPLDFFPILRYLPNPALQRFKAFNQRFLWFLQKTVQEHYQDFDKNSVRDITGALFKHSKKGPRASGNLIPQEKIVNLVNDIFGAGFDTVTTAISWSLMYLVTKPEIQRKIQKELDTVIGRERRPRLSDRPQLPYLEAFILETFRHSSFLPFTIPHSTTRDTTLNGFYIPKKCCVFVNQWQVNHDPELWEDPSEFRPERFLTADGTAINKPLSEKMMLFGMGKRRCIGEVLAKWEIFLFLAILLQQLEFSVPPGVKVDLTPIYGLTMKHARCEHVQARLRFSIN", "assay": "Inhibition of human CYP1A2 using alpha-naphthoflavone as […] relative to control", "assay_type": "ADME"}, "Cytochrome P450 2C19": {"biological_target": "Cytochrome P450 2C19 (Homo sapiens, UniProt P33261)", "sequence (P33261 whole entry)": "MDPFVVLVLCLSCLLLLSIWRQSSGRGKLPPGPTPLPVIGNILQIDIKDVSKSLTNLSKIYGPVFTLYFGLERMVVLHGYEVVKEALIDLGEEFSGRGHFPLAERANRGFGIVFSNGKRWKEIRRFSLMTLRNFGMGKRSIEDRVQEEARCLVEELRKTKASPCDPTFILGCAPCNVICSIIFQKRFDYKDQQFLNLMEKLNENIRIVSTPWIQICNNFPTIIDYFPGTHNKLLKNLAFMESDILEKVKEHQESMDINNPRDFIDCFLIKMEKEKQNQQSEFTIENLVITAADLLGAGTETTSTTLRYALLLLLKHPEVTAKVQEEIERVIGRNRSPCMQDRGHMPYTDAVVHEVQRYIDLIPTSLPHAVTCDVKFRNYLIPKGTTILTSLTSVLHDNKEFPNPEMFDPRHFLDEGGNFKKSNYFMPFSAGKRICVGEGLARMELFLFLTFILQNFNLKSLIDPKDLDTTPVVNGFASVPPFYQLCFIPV", "assay": "Inhibition of human CYP2C19 using amitriptyline as substrate relative to control", "assay_type": "ADME"}, "Cytochrome P450 2D6": {"biological_target": "Cytochrome P450 2D6 (Homo sapiens, UniProt P10635)", "sequence (P10635 whole entry)": "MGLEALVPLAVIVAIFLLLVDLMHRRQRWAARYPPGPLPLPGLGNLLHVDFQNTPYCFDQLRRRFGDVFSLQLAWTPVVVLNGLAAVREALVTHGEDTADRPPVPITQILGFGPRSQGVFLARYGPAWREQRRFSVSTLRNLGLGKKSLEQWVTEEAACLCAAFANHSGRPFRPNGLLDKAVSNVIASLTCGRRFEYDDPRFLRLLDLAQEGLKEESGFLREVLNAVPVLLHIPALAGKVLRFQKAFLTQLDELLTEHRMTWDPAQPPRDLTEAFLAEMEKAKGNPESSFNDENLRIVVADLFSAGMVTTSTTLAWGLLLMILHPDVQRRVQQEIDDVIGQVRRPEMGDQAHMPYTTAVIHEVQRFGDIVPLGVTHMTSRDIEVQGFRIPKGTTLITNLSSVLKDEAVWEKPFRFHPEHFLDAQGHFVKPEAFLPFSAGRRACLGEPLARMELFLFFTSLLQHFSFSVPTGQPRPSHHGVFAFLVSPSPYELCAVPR", "assay": "Inhibition of human CYP2D6 using quinidine as […] relative to control", "assay_type": "ADME"}, "Cytochrome P450 3A4": {"biological_target": "Cytochrome P450 3A4 (Homo sapiens, UniProt P08684)", "sequence (P08684 whole entry)": "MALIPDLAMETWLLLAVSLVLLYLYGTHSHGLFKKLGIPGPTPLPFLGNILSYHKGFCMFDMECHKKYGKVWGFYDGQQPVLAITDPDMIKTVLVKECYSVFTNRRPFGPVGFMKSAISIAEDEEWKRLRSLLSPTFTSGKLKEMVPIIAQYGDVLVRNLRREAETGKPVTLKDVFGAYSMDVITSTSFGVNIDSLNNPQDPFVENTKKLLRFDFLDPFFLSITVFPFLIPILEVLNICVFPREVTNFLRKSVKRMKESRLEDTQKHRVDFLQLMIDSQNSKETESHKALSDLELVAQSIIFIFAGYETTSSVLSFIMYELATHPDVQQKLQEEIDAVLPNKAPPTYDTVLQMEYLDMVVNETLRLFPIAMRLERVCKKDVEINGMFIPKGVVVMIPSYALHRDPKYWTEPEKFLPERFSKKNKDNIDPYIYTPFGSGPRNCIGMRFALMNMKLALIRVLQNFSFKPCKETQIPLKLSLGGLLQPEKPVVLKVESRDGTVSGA", "assay": "Inhibition of human CYP3A4 using ketoconazole as […] relative to control", "assay_type": "ADME"}, "hERG": {"biological_target": "hERG (Homo sapiens, UniProt Q12809)", "sequence (Q12809 whole entry)": "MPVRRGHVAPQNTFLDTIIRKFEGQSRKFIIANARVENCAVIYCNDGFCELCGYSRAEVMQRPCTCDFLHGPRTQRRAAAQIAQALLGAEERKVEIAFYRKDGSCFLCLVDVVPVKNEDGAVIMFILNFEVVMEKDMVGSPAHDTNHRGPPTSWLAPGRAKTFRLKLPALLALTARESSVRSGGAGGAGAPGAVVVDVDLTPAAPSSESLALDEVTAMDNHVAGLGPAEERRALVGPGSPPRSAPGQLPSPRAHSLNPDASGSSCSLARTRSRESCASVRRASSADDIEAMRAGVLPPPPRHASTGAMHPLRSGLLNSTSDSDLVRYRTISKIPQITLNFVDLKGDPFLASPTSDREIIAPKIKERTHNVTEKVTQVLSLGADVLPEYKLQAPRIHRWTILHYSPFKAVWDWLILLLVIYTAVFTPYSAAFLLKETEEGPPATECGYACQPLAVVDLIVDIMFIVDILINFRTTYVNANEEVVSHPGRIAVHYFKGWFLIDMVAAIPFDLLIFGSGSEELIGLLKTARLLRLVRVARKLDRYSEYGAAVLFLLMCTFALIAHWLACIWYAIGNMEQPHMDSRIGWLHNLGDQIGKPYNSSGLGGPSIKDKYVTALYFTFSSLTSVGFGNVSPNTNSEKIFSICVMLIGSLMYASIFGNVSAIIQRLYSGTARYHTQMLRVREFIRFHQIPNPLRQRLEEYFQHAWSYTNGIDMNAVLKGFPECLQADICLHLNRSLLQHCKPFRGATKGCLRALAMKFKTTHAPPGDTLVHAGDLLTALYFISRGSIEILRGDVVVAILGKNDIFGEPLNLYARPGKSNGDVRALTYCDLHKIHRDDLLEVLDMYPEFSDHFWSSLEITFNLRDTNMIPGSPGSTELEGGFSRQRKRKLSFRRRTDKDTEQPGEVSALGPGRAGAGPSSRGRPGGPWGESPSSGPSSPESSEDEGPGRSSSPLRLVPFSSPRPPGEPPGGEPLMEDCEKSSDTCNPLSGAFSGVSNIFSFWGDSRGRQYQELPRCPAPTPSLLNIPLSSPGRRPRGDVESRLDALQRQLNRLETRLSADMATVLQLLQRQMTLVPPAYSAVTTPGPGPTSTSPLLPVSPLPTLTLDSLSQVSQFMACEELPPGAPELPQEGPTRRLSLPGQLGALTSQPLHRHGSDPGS", "assay": "Inhibition of hERG at 10 uM relative to control", "assay_type": "toxicity"}, "[8]": {"assay": "Cytotoxicity against African green monkey Vero cells", "assay_type": "toxicity, cell-based, Chlorocebus sabaeus"}, "[9]": {"assay": "Cytotoxicity against human HFL1 cells", "assay_type": "toxicity, cell-based"}, "[10]": {"assay": "Cytotoxicity against mouse L929 cells", "assay_type": "toxicity, cell-based"}, "[11]": {"assay": "Cytotoxicity against mouse NIH3T3 cells", "assay_type": "toxicity, cell-based"}, "[12]": {"assay": "Cytotoxicity against CHO-K1 cells", "assay_type": "toxicity, cell-based, Cricetulus griseus", "conditions": "Chinese hamster"}, "[13]": {"assay": "Tmax in male mouse at 5 mg/kg, po", "assay_type": "ADME, organism-based", "conditions": "in vivo"}, "[14]": {"assay": "Cmax in male mouse at 5 mg/kg, po", "assay_type": "ADME, organism-based", "conditions": "in vivo"}, "[15]": {"assay": "Half life in male mouse at 1 mg/kg, iv", "assay_type": "ADME, organism-based", "conditions": "in vivo"}, "[16]": {"assay": "Half life in male mouse at 5 mg/kg, po", "assay_type": "ADME, organism-based", "conditions": "in vivo"}, "[17]": {"assay": "AUCt in male mouse at 1 mg/kg, iv", "assay_type": "ADME, organism-based", "conditions": "in vivo"}, "[18]": {"assay": "AUCt in male mouse at 5 mg/kg, po", "assay_type": "ADME, organism-based", "conditions": "in vivo"}, "[19]": {"assay": "AUCinfinity in male mouse at 1 mg/kg, iv", "assay_type": "ADME, organism-based", "conditions": "in vivo"}, "[20]": {"assay": "AUCinfinity in male mouse at 5 mg/kg, po", "assay_type": "ADME, organism-based", "conditions": "in vivo"}, "[21]": {"assay": "Oral bioavailability in male mouse at 5 mg/kg", "assay_type": "ADME, organism-based", "conditions": "in vivo"}, "Mus musculus [22]": {"tested_on": "Mus musculus", "assay": "Restoration of motile cilia in porcine pancreatic elastase-induced COPD C57BL/6 mouse model assessed as decrease in airway damage in trachea at 2 mg/kg, ip administered every other day for 2 weeks and measured 24 hrs post last dose by DAPI staining based confocal microscopic analysis", "assay_type": "functional, organism-based"}, "Mus musculus [23]": {"tested_on": "Mus musculus", "assay": "Restoration of motile cilia in porcine pancreatic elastase-induced COPD C57BL/6 mouse model assessed as increase in motile cilia in trachea at 2 mg/kg, ip administered every other day for 2 weeks and measured 24 hrs post last dose by DAPI staining based confocal microscopic analysis", "assay_type": "functional, organism-based"}}, "note": "pIC50: −log10 of the molar value. Active and inactive are the calls of the source. No cut-off for these calls is given here.", "data": [{"smiles": "CC(C)(C)Nc1ncc(-c2cn[nH]c2)cc1-c1nc2ccccc2o1", "values": [{"measurement": "Activity", "setting": "Danio rerio [1]", "result": "Active"}]}, {"smiles": "CC(C)(C)Nc1ncc(-c2ccsc2)cc1-c1nc2ccccc2o1", "values": [{"measurement": "Activity", "setting": "Danio rerio [1]", "result": "Active"}]}, {"smiles": "CNc1ncc(-c2cccc(N)c2)cc1-c1nc2ccccc2o1", "values": [{"measurement": "Activity", "setting": "Danio rerio [1]", "result": "Active"}]}, {"smiles": "Nc1cccc(-c2cnc(N3CCCCC3)c(-c3nc4ccccc4o3)c2)c1", "values": [{"measurement": "Activity", "setting": "Danio rerio [1]", "result": "Active"}]}, {"smiles": "Nc1cccc(-c2cnc(N3CCOCC3)c(-c3nc4ccccc4o3)c2)c1", "values": [{"measurement": "Activity", "setting": "Danio rerio [1]", "result": "Active"}]}, {"smiles": "CC(C)(C)Nc1ncc(-c2ccccn2)cc1-c1nc2ccccc2o1", "values": [{"measurement": "Activity", "setting": "Danio rerio [1]", "result": "Active"}]}, {"smiles": "CC(C)(C)Nc1ncc(-c2cnn(CCC(=O)O)c2)cc1-c1nc2ccccc2o1", "values": [{"measurement": "Activity", "setting": "Danio rerio [2]", "result": "Active"}]}, {"smiles": "Nc1cccc(-c2cnc(N)c(-c3nc4ccccc4o3)c2)c1", "values": [{"measurement": "Activity", "setting": "Danio rerio [1]", "result": "inactive"}]}, {"smiles": "CCCCNc1ncc(-c2cccc(N)c2)cc1-c1nc2ccccc2o1", "values": [{"measurement": "Activity", "setting": "Danio rerio [1]", "result": "Active"}]}, {"smiles": "CC(C)(C)Nc1ncc(-c2ccoc2)cc1-c1nc2ccccc2o1", "values": [{"measurement": "Activity", "setting": "Danio rerio [1]", "result": "Active"}]}, {"smiles": "CC(C)(C)Nc1ncc(-c2ccccc2)cc1-c1nc2ccccc2o1", "values": [{"measurement": "Activity", "setting": "Danio rerio [1]", "result": "Active"}]}, {"smiles": "CC(C)(C)Nc1ncc(-c2cnn(C(C)(C)CC(=O)O)c2)cc1-c1nc2ccccc2[nH]1", "values": [{"measurement": "Activity", "setting": "Danio rerio [1]", "result": "Active"}]}, {"smiles": "Nc1cccc(-c2cnc(N3CCNCC3)c(-c3nc4ccccc4o3)c2)c1", "values": [{"measurement": "Activity", "setting": "Danio rerio [1]", "result": "Active"}]}, {"smiles": "CC(C)(C)Nc1ncc(-c2cccnc2)cc1-c1nc2ccccc2o1", "values": [{"measurement": "Activity", "setting": "Danio rerio [1]", "result": "Active"}]}, {"smiles": "CN1CCN(c2ncc(-c3cccc(N)c3)cc2-c2nc3ccccc3o2)CC1", "values": [{"measurement": "Activity", "setting": "Danio rerio [1]", "result": "Active"}]}, {"smiles": "CC(C)(C)Nc1ncc(-c2cccc(N)c2)cc1-c1nc2ccccc2o1", "values": [{"measurement": "Activity", "setting": "Danio rerio [1]", "result": "Active"}]}, {"smiles": "CC(C)(C)Nc1ncc(-c2cnn(C(C)(C)CC(=O)O)c2)cc1-c1nc2ccccc2o1", "values": [{"measurement": "inhibition (INH)", "setting": "Cytochrome P450 2C9", "result": 31.9, "unit": "%"}, {"measurement": "Vd", "setting": "[3]", "result": 0.4, "unit": "L/kg"}, {"measurement": "Activity", "setting": "Danio rerio [1]", "result": "Active"}, {"measurement": "Activity", "setting": "Danio rerio [2]", "result": "Active"}, {"measurement": "Activity", "setting": "mTEC", "result": "Active"}, {"measurement": "clearance", "setting": "[4]", "result": 1.33, "unit": "mL/min/kg"}, {"measurement": "remaining at 0.5 h", "setting": "[5]", "result": "> 99.9", "unit": "%"}, {"measurement": "remaining at 0.5 h", "setting": "[6]", "result": "> 99.9", "unit": "%"}, {"measurement": "remaining at 0.5 h", "setting": "[7]", "result": "> 99.9", "unit": "%"}, {"measurement": "inhibition (INH)", "setting": "Cytochrome P450 1A2", "result": 1.17, "unit": "%"}, {"measurement": "inhibition (INH)", "setting": "Cytochrome P450 2C19", "result": 17.4, "unit": "%"}, {"measurement": "inhibition (INH)", "setting": "Cytochrome P450 2D6", "result": "< 1", "unit": "%"}, {"measurement": "inhibition (INH)", "setting": "Cytochrome P450 3A4", "result": "< 1", "unit": "%"}, {"measurement": "inhibition at 10 µM", "setting": "hERG", "result": "< 1", "unit": "%"}, {"measurement": "pIC50", "setting": "[8]", "result": "< 4.00"}, {"measurement": "pIC50", "setting": "[9]", "result": "< 4.00"}, {"measurement": "pIC50", "setting": "[10]", "result": "< 4.00"}, {"measurement": "pIC50", "setting": "[11]", "result": "< 4.00"}, {"measurement": "pIC50", "setting": "[12]", "result": "< 4.00"}, {"measurement": "Tmax", "setting": "[13]", "result": 3.67, "unit": "h"}, {"measurement": "Cmax", "setting": "[14]", "result": 5160, "unit": "ng/mL"}, {"measurement": "half-life", "setting": "[15]", "result": 3.51, "unit": "h"}, {"measurement": "half-life", "setting": "[16]", "result": 3.55, "unit": "h"}, {"measurement": "AUC(0-t)", "setting": "[17]", "result": 12500, "unit": "ng·h/mL"}, {"measurement": "AUC(0-t)", "setting": "[18]", "result": 53100, "unit": "ng·h/mL"}, {"measurement": "AUC(0-inf)", "setting": "[19]", "result": 12600, "unit": "ng·h/mL"}, {"measurement": "AUC(0-inf)", "setting": "[20]", "result": 62900, "unit": "ng·h/mL"}, {"measurement": "bioavailability", "setting": "[21]", "result": 85, "unit": "%"}, {"measurement": "Activity", "setting": "Mus musculus [22]", "result": "Active"}, {"measurement": "Activity", "setting": "Mus musculus [23]", "result": "Active"}]}, {"smiles": "CC(CC(=O)O)n1cc(-c2cnc(NC(C)(C)C)c(-c3nc4ccccc4o3)c2)cn1", "note": "(configuration not stated)", "values": [{"measurement": "Activity", "setting": "Danio rerio [2]", "result": "Active"}]}]}
